Results reported in the NIST ThermoML archive (doi:10.1021/je0602925).
± gives the expanded uncertainty stated by the source.

Experiment: activity coefficient (dimensionless); of the first substance listed, at infinite dilution; xn = mol fraction of the nth substance listed
Conditions: Liquid, Chromatography, x1 = 0

## c1ccccc1 [benzene] + CCCCCCCCCCCCCC[P+](CCCCCC)(CCCCCC)CCCCCC.O=S(=O)([N-]S(=O)(=O)C(F)(F)F)C(F)(F)F
308.15 K
  activity coefficient: 0.406 ± 0.034
318.15 K
  activity coefficient: 0.403 ± 0.034
328.15 K
  activity coefficient: 0.402 ± 0.034
